From US12403169B2, “Compositions and methods related to Rhamnus prinoides (gesho) extract for the inhibition of polymicrobial biofilm formation” (GEORGIA STATE UNIVERSITY RESEARCH FOUNDATION, INC., priority 2018, dated 2025)
One block for each molecule: values may come before it.

Legend:
biofilm = assay: Screen of other compounds for anti-biofilm effect; assay type: cell-based
[1] = test system: Staphylococcus aureus biofilm formation; assay: microbe, parasite or virus in culture; conditions: for effect on biofilm formation: evaluated at 0.8% and 3%; for IC50 / CC50: Staphylococcus aureus; for IC50: 24 h, read-out: BP50; for CC50: read-out: category based on BP50 and LC50; for anti-biofilm activity (words): pure compounds
Procedure: Staphylococcus aureus and Streptococcus mutans biofilms were grown in Luria-Bertani (LB) broth and brain-heart infusion (BHI) medium containing 0.5% sucrose, respectively. Biofilm formation was assessed using a polystyrene 96 well microtiter plate crystal violet assay. Overnight broth cultures were diluted to an initial optical density (OD600) of 0.01 in fresh media and combined with gesho extract to obtain a final concentration of 7 mg/ml. Treatments were then serially diluted to final extract concentrations of 5, 3, 1, 0.5 and 0.25 mg/ml. Negative controls consisted of cells diluted to an initial optical density (OD600) of 0.01 in growth media without plant extract. 100 μl of treated and untreated samples were added to each well of a microtiter plate and incubated at 37° C. for 24 hours. After 24 hours, planktonic cells and spent growth media were removed from each well and the plate was washed three times in sterile water. Biofilms were then stained with 150 μl of 0.1% crystal violet for 15 minutes at 200 rpm. Excess dye was removed via washing in sterile water and the plate was allowed to air dry.
Staphylococcus aureus and Pseudomonas aeruginosa biofilms were grown in LB broth and PBM-glucose, respectively. Biofilm formation was assessed using a polystyrene 96 well microtiter plate crystal violet assay. […] DMSO was added to solubilize the treatments. Negative controls consisted of cells diluted to an initial OD600 of 0.01 in growth media without treatment. 100 μl of treated and untreated samples were added to each well of a microtiter plate and incubated at 37° C. for 24 h. After 24 h, planktonic cells and spent growth media were removed from each well and the plate was washed 3 times in sterile water. Biofilms were then stained with 150 μl of 0.1% crystal violet for 15 min at 200 rpm. Excess dye was removed via washing in sterile water and the plate was allowed to air dry.
Biofilm formation was assessed using a polystyrene 96 well microtiter plate crystal violet assay.^23 Overnight broth cultures were diluted to an initial OD600 of 0.01 in fresh LB and combined with a target compound to obtain a final concentration of 7 mg/ml. Treatments were then serially diluted to final extract concentrations of 5, 3, 1, 0.5 and 0.25 mg/ml. No vehicles were added to solubilize the treatments. Untreated cells served as negative controls. 100 μl of treated and untreated samples were added to each well of a microtiter plate and incubated at 37° C. for 24 h. After 24 h, planktonic cells and spent growth media were removed from each well and the plate was washed 3 times in sterile water. Biofilms were then stained with 150 μl of 0.1% crystal violet for 15 min at 200 rpm. Excess dye was removed via washing in sterile water and the plate was allowed to air dry. […] The molarity of each treatment was calculated using excel.

[2] = test system: Staphylococcus aureus growth; assay: Staphylococcus aureus growth curve; assay type: cell-based, Staphylococcus aureus ATCC 6538
Procedure: 2 mL of each treatment was added to 19 culture tubes and the samples were incubated for 24 h at 37° C. with shaking at 200 rpm. 1 mL of each sample was transferred to a cuvette and the absorbance measurements at 600 nm were taken every hour for 9 hours. 24 h measurements were taken the following day. Untreated samples and samples containing 1.6 μg/mL vancomycin served as a negative and positive controls, respectively. Growth rates were calculated using the slope of the log phase of growth (t=0 h and t=4 h).

[3] = test system: Staphylococcus aureus biofilms; assay: Staphylococcus aureus biofilm killing assay (resazurin); assay type: cell-based, Staphylococcus aureus ATCC 6538; conditions: combination with vancomycin at its MBEC
Procedure: Staphylococcus aureus biofilms were formed as described above. Staphylococcus aureus biofilms were grown in LB broth. […] […]. Negative controls consisted of 100 μL of fresh LB without compound or antibiotic. […] 100 μL of 10 μg/mL resazurin in LB was added to each biofilm and the plate was statically incubated at 37° C. for 3 hrs. During incubation, fluorescence intensity was measured at λex=570 nm λem=590 nm every 6 minutes using an Enspire fluorescence plate reader. Data was normalized to the emission at t=0 and the rates of resazurin conversion to resorufin was calculated to identify the time at which maximum fluorescence was achieved.

[4] = test system: Staphylococcus aureus hydrophobicity; assay: Hydrophobicity test (microbial adherence to hydrocarbon); assay type: cell-based; conditions: 0.2 or 0.4 mg/mL, 24 h
Procedure: Hydrophobicity analysis was conducted according to Ciccio, et al., 2015 with a few modifications. Three milliliters of Staphylococcus aureus cultures were grown in the presence of 4-ethoxybenzoic acid (0.2 or 0.4 mg/mL) or methyl gallate (0.2 or 0.4 mg/mL) for 24 h at 37° C. with shaking at 200 rpm. Cultures were diluted to an OD600 of 0.6 and washed with 1 mL PBS. 5 mL of the inoculum was produced, 1 mL was removed for plating on growth agar and 1 mL of hexadecane was applied to the air-liquid interface or the remaining 4 mL. Hexadecane samples were vortexed for 1 min and the phases allowed to separate for 15 minutes at room temperature. 1 mL of the aqueous layer was removed and plated on growth agar. Agar plates were incubated at 37° C. overnight and plate counts were conducted the following day. Results were interpreted as the percent of cells present in the aqueous layer prior to (A0) and after (A1) the addition of hexadecane [(A0−A1)/A0]*100.

[5] = test system: Staphylococcus aureus stationary phase planktonic cells; conditions: pure compounds, with or without 1% DMSO
Procedure: To assess the viability of stationary phase planktonic cell, a growth agar based assay was conducted. Spent media containing stationary phase planktonic cells was collected after a biofilm formation assay. Collected cells were serially diluted in PBS and dilutions were radially plated in 10 μl volumes on growth medium. Agar plates were incubated at 37° C. overnight to allow for colony formation. Plate counts were used to assess viability.
To assess the viability of stationary phase planktonic cells, a growth agar-based assay was conducted. Spent media containing stationary phase planktonic cells were collected from microtiter plates after the conclusion of each biofilm formation assay. The collected cells were serially diluted (1:10) in PBS and dilutions were radially plated in 10 μl volumes on growth medium. Agar plates were incubated at 37° C. overnight to allow for colony formation and plate counts were used to assess viability. Colony forming units per milliliter of culture (CFU/mL) was calculated by dividing the colony counts (C) by the volume added (V) multiplied by the dilution factor (D): […]

[6] = test system: Staphylococcus aureus log-phase planktonic cells; assay: Log-phase cell antimicrobial assay; assay type: cell-based, Staphylococcus aureus ATCC 6538; conditions: pure compounds, with or without 1% DMSO
Procedure: Bacteria were inoculated in 20 ml of growth media at an initial optical density (OD600) of 0.01 and incubated at 37° C., 200 rpm until log-phase was reached. One milliliter of log-phase cells was transferred to 1.5 ml microfuge tubes and growth media removed via centrifugation. Pelleted cells were washed twice with phosphate buffered saline (PBS) before resuspending the pellets in 1 ml of extract dissolved in PBS. Treatments were incubated at 37° C. for 1 hour then serially diluted in PBS and radially plated on growth agar.
Bacteria were inoculated in 20 ml of growth media at an initial optical density (OD600) of 0.01 and incubated for 4±1 h at 37° C. with shaking at 200 rpm until log phase (OD600≈0.35) was reached. 1 ml of log-phase cells was transferred to 1.5 ml microfuge tubes and the growth medium was removed via centrifugation. Pelleted cells were washed twice with phosphate buffered saline (PBS) before resuspending the pellets in 1 ml of 4-ethoxybenzoic acid or methyl gallate with or without vancomycin dissolved in PBS. Treatments were incubated at 37° C. for 1 h and then serially diluted in PBS and radially plated on growth agar.

Structure (SMILES): CCCCCCCCC(C)O (stereo not shown) [2-decanol]
anti-biofilm effect (biofilm): anti-biofilm effect

Structure (SMILES): CCCC(C)=O [2-pentanone, reference compound]
effect on biofilm formation [1]: Neither benzoic acid nor 2-pentanone had a statistically significant effect on biofilm formation

Structure (SMILES): O=C(O)c1cccc(O)c1 [3-hydroxybenzoic acid]
IC50 [1]: 9.6 mM | CC50 [1]: < 15 mM

Structure (SMILES): CCOc1ccc(C(=O)O)cc1 [4-ethoxybenzoic acid]
IC50 [1]: 1.6 mM | CC50 [1]: < 7.5 mM | Percent attenuation ([2]; 1.2 mM): 12% | Growth rate ([2]; 1.2 mM, t=0 to t=4 h): 0.97 log replications/hr | Percent attenuation ([2]; 2.4 mM): 47% | Growth rate ([2]; 2.4 mM, t=0 to t=4 h): 0.58 log replications/hr | synergism with vancomycin in biofilm killing [3]: synergistic effects | hydrophobicity of S. aureus [4]: decreased the hydrophobicity

Structure (SMILES): CCOC(=O)c1ccc(OCC)cc1 [EEB, ethyl 4-ethoxybenzoate]
CC50 [1]: > 7.5 mM | effect of DMSO on anti-biofilm activity ([1]; combined with 1% DMSO): presence of DMSO increased the anti-biofilm activity of EEB | anti-biofilm activity (words) [1]: significant anti-biofilm activity | anti-biofilm activity (words) ([1]; listed as ethyl 4-ethoxybenzoate): anti-biofilm activity | antibacterial activity against stationary phase cells [5]: did not show antibacterial activity | antibacterial activity against log phase cells [6]: did not show antibacterial activity

Structure (SMILES): O=C(O)c1ccccc1 [benzoic acid, reference compound]
effect on biofilm formation [1]: Neither benzoic acid nor 2-pentanone had a statistically significant effect on biofilm formation

IC50 [1]: 6.7 mM
Structure (SMILES): CCOC(=O)c1cc(O)c(O)c(O)c1 [ethyl gallate]
CC50 [1]: < 15 mM

IC50 [1]: 17.3 mM
Structure (SMILES): O=C(O)c1cc(O)c(O)c(O)c1 [gallic acid]
CC50 [1]: > 7.5 mM

IC50 [1]: 9.2 mM
Structure (SMILES): O=C(O)c1cc(O)ccc1O [gentisic acid, 2,5-dihydroxybenzoic acid]

Structure (SMILES): COC(=O)c1cc(O)c(O)c(O)c1 [methyl gallate]
IC50 [1]: 0.82 mM | CC50 [1]: < 7.5 mM | Percent attenuation ([2]; 1.1 mM): 30% | Growth rate ([2]; 1.1 mM, t=0 to t=4 h): 0.77 log replications/hr | Percent attenuation ([2]; 1.2 mM): 46% | Growth rate ([2]; 1.2 mM, t=0 to t=4 h): 0.59 log replications/hr | synergism with vancomycin in biofilm killing [3]: did not exhibit synergism | hydrophobicity of S. aureus [4]: decreased the hydrophobicity

Structure (SMILES): COC(=O)c1ccc(O)cc1 [methyl paraben, 4-hydroxybenzoic acid methyl ester]
Percent attenuation ([2]; 5.2 mM): 25% | Growth rate ([2]; 5.2 mM, t=0 to t=4 h): 0.83 log replications/hr

Structure (SMILES): O=C(O)c1ccc(O)cc1 [p-hydroxybenzoic acid, 4-hydroxybenzoic acid]
IC50 [1]: 8 mM | CC50 [1]: < 15 mM

IC50 [1]: 2.9 mM
Structure (SMILES): CCCOC(=O)c1cc(O)c(O)c(O)c1 [propyl gallate]
CC50 [1]: < 15 mM

Structure (SMILES): O=C(O)c1ccc(O)c(O)c1 [protocatechuic acid, 3,4-dihydroxybenzoic acid]
IC50 [1]: 14.4 mM | CC50 [1]: < 15 mM

IC50 [1]: 4.8 mM
Structure (SMILES): O=C(O)c1cccc(O)c1O [pyrocatechuic acid, 2,3-dihydroxybenzoic acid]
CC50 [1]: < 15 mM

IC50 [1]: 38.5 mM
Structure (SMILES): O=C(O)c1ccccc1O [salicylic acid, 2-hydroxybenzoic acid]
CC50 [1]: > 7.5 mM

Structure (SMILES): CN[C@H](CC(C)C)C(=O)N[C@H]1C(=O)N[C@@H](CC(N)=O)C(=O)N[C@H]2C(=O)N[C@H]3C(=O)N[C@H](C(=O)N[C@H](C(=O)O)c4cc(O)cc(O)c4-c4cc3ccc4O)[C@H](O)c3ccc(c(Cl)c3)Oc3cc2cc(c3O[C@@H]2O[C@H](CO)[C@@H](O)[C@H](O)[C@H]2O[C@H]2C[C@](C)(N)[C@H](O)[C@H](C)O2)Oc2ccc(cc2Cl)[C@H]1O [vancomycin, reference compound]
Growth rate ([2]; 1.1 μM, positive control): 0.0 log replications/hr | Percent attenuation ([2]; 1.1 μM, positive control): 100%
